Test results from patent publication US6962909B2, “Treatment of neovascularization disorders with squalimine” (Genaera Corporation, priority 1995, dated 2005).
Values after ≈ are worked out from the molar mass of the structure shown. “Also recorded” adds a separate entry of the source.

Legend:
Mouse IV PK study = settings: in vivo
Protocol: To assess clearance, a mouse IV PK study was performed for compound 319 and squalamine. The compound was administered i.v. and blood samples were taken every 10 minutes. The concentration of the administered steroid was determined by HPLC analysis.

B16 melanoma = test: Growth of B16 melanoma in C57B mice; type: in vivo; settings: subcutaneous administration
Protocol: The growth of B16 melanoma in C57B mice is dependent upon neovascularization.
Using the growth of B16 melanoma cells in C57B mice, a recognized model for the evaluation of inhibitors of angiogenesis on the growth of cancers, the effects of subcutaneous, intraperitoneal and oral administration of squalamine were evaluated.
Animals were implanted with B16 melanoma followed by treatment with compound 1436 or 1256 administered in a combined schedule or separately. […] Thus, a combination of these two compounds achieves a therapeutic benefit in tumors dependent on neovascularization that may prevent metastatic spread.

[1] = test system: Stage 59-60 Xenopus tadpoles; test: Xenopus tadpole assay; type: in vivo, Xenopus laevis; settings: 10 μg/ml in water
Method in brief: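 Stage 59-60 Xenopus laevis tadpoles placed in compound dissolved in distilled water at 10 μg/ml, allowing oral uptake and systemic exposure. After 1 hour, capillary blood-flow occlusion in the tail was scored by inverted microscopy (~100×) plus gross observation.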

[2] = test system: human microvascular cells; test: Endothelial cord formation assay; type: cell-based
Method in brief: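 Human microvascular endothelial cells plated on collagen matrix with VEGF and basic fibroblast growth factor; compound effect assessed on resulting cord-like tubular structures.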

[3] = test system: vitelline capillaries of 3- to 5-day chick embryo; test: Chick embryo vitelline capillary regression assay; type: in vivo; parameters: key to Vascular reactivity (capillary regression): + = Vascular reactivity; 0 = No vascular reactivity; +/− = Equivocal reactivity; settings: for Vascular reactivity (capillary regression): 60 minutes
Method in brief: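 Compounds were applied onto the 3- to 5-day embryo in 0.1 ml 15% Ficol 400 in PBS. Vascular regression was assessed visually after 60 min, scoring capillary constriction and pinching-off into enclosed blood-island-like sacs.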

Human melanoma WM 1167 = test: Cytotoxic activity against cancer cells
Lewis lung carcinoma = test: In vitro cell growth inhibition (assay of Baker et al.); type: cell-based
Source text: (§1) As set forth in Table 7 below, all malignant tumors evaluated in tissue culture, endothelial cells and vascular smooth muscle cells were sensitive to inhibition. Thus, compound 1436 has application in the control of growth factor dependent proliferation of many types of tissue.

[4] = test system: Human ovarian carcinoma SKOV3; test: as above; type: cell-based
Protocol: as §1
Using the assay described above, the anticancer effects of compound 1437 against several cancer lines was assessed.

[5] = Fasting blood glucose in mice; type: in vivo
Protocol: To study the effect of steroid administrator or the NHE responsible for secretion of insulin, several of the aminosterols from shark liver were administered to fasting mice. Male CD-1 mice were assigned to one of four treatment groups. Whole blood glucose was tested using glucometer (Lifescan Glucometer II and One Touch test strips). Statistical analysis was via one-way analysis of variance (ANOVA) followed by subsequent Bonferonni's t-test.

[6] = test system: PHA-stimulated human lymphocytes; test: Inhibition of mitogen-stimulated growth of human T-cells; type: cell-based; settings: 10 μg/ml; 72 hours
Protocol: Human heparinized blood, freshly collected, was introduced into tissue culture flasks containing 10 μg/ml phytohaemagglutinin (PHA) in RPMI medium with 10% FCS. Various purified steroids were introduced subsequently at concentrations of 1, 5, and 10 μg/ml. Cultures were incubated for 72 hours, after which time colcemid was added to 1 μg/ml. Cultures were maintained for an additional 2 hours, and cells collected. Mitotic figures were estimated using standard cytochemical techniques, following Giemsa staining.

CC(CCC(=O)O)[C@H]1CCC2C3CC[C@H]4C[C@@H](NCCCNCCCCN)CC[C@]4(C)C3CC[C@@]21C (some centres unmarked) [Compound 319]
half-life (Mouse IV PK study): ~14 min
Control of B16 melanoma (B16 melanoma): achieved control of B16 in C57B mice to an extent almost comparable to squalamine
Pharmacological category in tadpole assay (similarity to a reference steroid) [1]: common vascular occlusive effect
Effect on endothelial cord formation ([2]; 0.01 μg/ml): −
Effect on endothelial cord formation ([2]; 0.1 μg/ml): +
Effect on endothelial cord formation ([2]; 1.0 μg/ml): +
Effect on endothelial cord formation ([2]; 10.0 μg/ml): +
Vascular reactivity (capillary regression) ([3]; 0.001 μg applied): +/−
Vascular reactivity (capillary regression) ([3]; 0.01 μg applied): +
Vascular reactivity (capillary regression) ([3]; 0.1 μg applied): +
Vascular reactivity (capillary regression) ([3]; 1 μg applied): +
Vascular reactivity (capillary regression) ([3]; 10 μg applied): +

CC(C)CCCC(C)[C@H]1CCC2C3CC[C@H]4C[C@@H](NCCCNCCCCNCCCN)CC[C@]4(C)C3CC[C@@]21C (some centres unmarked) [Compound 353]
Mechanism of cell death in exposed cells (Human melanoma WM 1167): apoptotic cell death has been induced
IC50 (Human melanoma WM 1167; Homo sapiens): 3 µg/mL (≈ 5.24 µM)
IC50 (Lewis lung carcinoma): 1.9 µg/mL (≈ 3.32 µM)
Pharmacological category in tadpole assay (similarity to a reference steroid) [1]: effects like those produced by compound 1436
Effect on endothelial cord formation ([2]; 0.1 μg/ml): +
Effect on endothelial cord formation ([2]; 1.0 μg/ml): +
Effect on endothelial cord formation ([2]; 10.0 μg/ml): +
Vascular reactivity (capillary regression) ([3]; 1 μg applied): +/−
Effect on chick embryo capillary bed ([3]; in vivo): no effect on the chick embryo capillary bed

CC(CCC(CO)(OS(=O)(=O)O)C(C)C)[C@H]1CCC2C3C(CC[C@@]21C)[C@@]1(C)CC[C@H](NCCCNCCCCN)C[C@@H]1C[C@H]3O (some centres unmarked) [Compound 1437]
Anticancer activity [4]: exhibit anticancer activity
Effect on blood glucose ([5]; intravenous, 1436 in D5W (5% glucose), 1437 in water): caused hyperglycemia in mice
Fasting Blood Glucose Mean + SEM ([5]; male CD-1 mice, 2 × 10 mg/kg i.v. (total 20 mg/kg), overnight fast, blood 30 min. after 2d dose, 1437 and 1256 in H2O, 1436 in D5W): 82 ± 15.3 mg/dL
Pharmacological response observed in tadpole ([1]; about 1 hour): Epithelium covering the embryonic portions of the animal, such as the tail and antennae, began to slough off in sheets; also recorded: the larval skin was observed to shed off in a sheet
Inhibition of PHA-stimulated human lymphocytes [6]: 10 % control
